Experimental data from US20080090805A1, “CB-1 MODULATING COMPOUNDS AND THEIR USE” (ACADIA PHARMACEUTICALS INC., priority 2005, published 2008).

Target: native CB1 receptors (Rattus norvegicus, UniProt P20272)
Test: CB1 receptor rat binding assay ([3H]SR141716A, rat brain membranes)
Conditions: rat brain membranes, [3H]SR141716A; for Ki: read-out: Binding rat pKi (converted)

Chain of native CB1 receptors (P20272 whole entry): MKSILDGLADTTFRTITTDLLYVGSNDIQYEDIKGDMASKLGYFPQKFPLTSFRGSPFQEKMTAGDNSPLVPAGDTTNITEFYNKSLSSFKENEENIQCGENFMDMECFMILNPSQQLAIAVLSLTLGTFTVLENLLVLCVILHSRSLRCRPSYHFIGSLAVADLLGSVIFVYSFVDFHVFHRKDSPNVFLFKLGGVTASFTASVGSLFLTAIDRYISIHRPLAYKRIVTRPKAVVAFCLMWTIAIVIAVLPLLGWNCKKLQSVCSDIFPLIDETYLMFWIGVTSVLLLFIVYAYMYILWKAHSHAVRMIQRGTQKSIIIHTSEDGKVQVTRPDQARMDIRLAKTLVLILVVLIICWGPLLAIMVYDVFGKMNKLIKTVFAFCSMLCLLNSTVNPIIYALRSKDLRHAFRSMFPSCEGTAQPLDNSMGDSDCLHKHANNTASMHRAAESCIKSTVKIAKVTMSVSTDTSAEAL

For `O=C(NCCc1ccc(Cl)cc1)c1ccc2c(c1)N=C(C1CCCCC1)c1ccccc1S2` [drawing 1280], which Ki is on record?
Its Ki is 2 nM.

For `O=C(NCCc1ccccc1)c1ccc2c(c1)N=C(c1ccccc1)c1ccccc1S2` [drawing 1332], which Ki is on record?
Its Ki is 25.1 nM.

With `COc1ccc(C2=Nc3cc(C(=O)NCCC(C)C)ccc3Sc3ccccc32)cc1` [drawing 1351] as the compound, how does the “Binding rat Inh %” value read?
Its value is 81%.

And the Ki?
The Ki was 3.98 nM.

`O=C(NN1CCCCCC1)c1ccc2c(c1)N=C(c1ccc(Cl)cc1)c1ccccc1S2` [drawing 1463] was tested. Which “Binding rat Inh %” value did it give?
Its value is 82%.

What about the Ki of the same compound?
The Ki was 7.94 nM.

How did the Ki turn out when `O=C(NCCc1cccc(Cl)c1)c1ccc2c(c1)N=C(C1CCCCC1)c1ccccc1S2` [drawing 1499] was run?
The Ki was 10 nM.

What does the source list for `C[C@@H]1CCC[C@H](C)N1NC(=O)c1ccc2c(c1)N=C(c1cccc(F)c1)c1ccccc1S2` [drawing 1261]?
Binding rat Inh %: 91%; Ki: 20 nM

With `O=C(NCc1cccc(Cl)c1)c1ccc2c(c1)N=C(c1cccc(Cl)c1)c1cc(F)ccc1S2` [drawing 1375] as the compound, how does the Ki read?
The Ki was 5.01 nM.

For `CCCCNC(=O)c1ccc2c(c1)N=C(c1ccccc1)c1ccccc1S2` [drawing 1300], which Ki is on record?
The Ki was 20 nM.

For `O=C(NCc1cccnc1)c1ccc2c(c1)N=C(c1cccc(Br)c1)c1ccccc1S2` [drawing 1278], which “Binding rat Inh %” value is on record?
The value was 80%.

What about the Ki of the same compound?
Its Ki is 20 nM.

`O=C(NC1CCC(F)(F)CC1)c1ccc2c(c1)N=C(c1ccsc1)c1ccccc1S2` was tested. Which “Binding rat Inh %” value did it give?
Its value is 92%.

What about the Ki of the same compound?
The Ki was 3.16 nM.

For `O=C(NCc1ccccc1)c1ccc2c(c1)N=C(c1ccccc1F)c1ccccc1S2` [drawing 1365], which Ki is on record?
The Ki was 31.6 nM.

For `CCCCNC(=O)c1ccc2c(c1)N=C(c1ccccn1)c1ccccc1S2` [drawing 1527], which “Binding rat Inh %” value is on record?
The value was 108%.

And the Ki?
Its Ki is 79.4 nM.

How did the “Binding rat Inh %” value turn out when `O=C(NC1CCCC1)c1ccc2c(c1)N=C(c1cccc(Cl)c1)c1ccccc1S2` [drawing 1547] was run?
The value was 84%.

What about the Ki of the same compound?
The Ki was 12.6 nM.

With `O=C(NCCc1ccc(Cl)cc1)c1ccc2c(c1)N=C(c1ccc(F)cc1)c1ccccc1S2` [drawing 1367] as the compound, how does the Ki read?
Its Ki is 3.98 nM.

With `CC(CNC(=O)c1ccc2c(c1)N=C(N1CCCCC1)c1cc(F)ccc1S2)c1ccccc1` (centres unmarked) [drawing 1513] as the compound, how does the Ki read?
The Ki was 79.4 nM.

Which results are given for `Cc1cccc(C2=Nc3cc(C(=O)NCC(C)C)ccc3Sc3ccccc32)n1` [drawing 1472]?
Binding rat Inh %: 96%; Ki: 7.94 nM

For `O=C(NCCc1ccccn1)c1ccc2c(c1)N=C(c1ccc(Br)cc1)c1ccccc1S2` [drawing 1460], which “Binding rat Inh %” value is on record?
Its value is 61%.

What about the Ki of the same compound?
The Ki was 50.1 nM.

Which results are given for `O=C(NCc1cccnc1)c1ccc2c(c1)N=C(c1ccc(Br)cc1)c1ccccc1S2` [drawing 1180]?
Binding rat Inh %: 72%; Ki: 12.6 nM

With `Cc1ccc(CNC(=O)c2ccc3c(c2)N=C(c2sccc2C)c2ccccc2S3)o1` [drawing 1400] as the compound, how does the “Binding rat Inh %” value read?
Its value is 102%.

What about the Ki of the same compound?
Its Ki is 6.31 nM.

Which results are given for `O=C(NCCC(F)(F)F)c1ccc2c(c1)N=C(c1ccc(F)cc1)c1ccccc1S2` [drawing 1418]?
Binding rat Inh %: 105%; Ki: 6.31 nM

How did the Ki turn out when `O=C(NN1CCCCC1)c1ccc2c(c1)N=C(c1cccc(Br)c1)c1ccccc1S2` [drawing 1487] was run?
The Ki was 10 nM.

For `Cc1ccc(CNC(=O)c2ccc3c(c2)N=C(c2ccsc2)c2ccccc2S3)o1` [drawing 1346], which “Binding rat Inh %” value is on record?
Its value is 89%.

And the Ki?
Its Ki is 3.98 nM.

Which results are given for `O=C(NCCc1ccncc1)c1ccc2c(c1)N=C(c1ccc(Cl)s1)c1ccccc1S2` [drawing 1540]?
Binding rat Inh %: 109%; Ki: 12.6 nM

Which Ki does the source give for `CC(NC(=O)c1ccc2c(c1)N=C(c1ccc(F)cc1)c1ccccc1S2)c1ccccc1` (centres unmarked) [drawing 1471] here?
The Ki was 7.94 nM.

For `CCN(CCNC(=O)c1ccc2c(c1)N=C(c1ccccc1F)c1ccccc1S2)c1ccccc1` [drawing 1302], which Ki is on record?
The Ki was 20 nM.

`O=C(NCc1ccc(F)cc1)c1ccc2c(c1)N=C(C1CCCCC1)c1ccccc1S2` [drawing 1336] was tested. Which Ki did it give?
Its Ki is 3.98 nM.

What does the source list for `CC(C)CNC(=O)c1ccc2c(c1)N=C(c1ccc(Cl)cc1)c1ccc(Cl)cc1S2` [drawing 1525]?
Binding rat Inh %: 86%; Ki: 10 nM

Which results are given for `CCCCNC(=O)c1cc2c(cc1C)Sc1ccccc1C(c1ccc(Cl)cc1)=N2` [drawing 1243]?
Binding rat Inh %: 119%; Ki: 15.8 nM
